Measured values from patent US20090004112A1, “METHODS FOR THE TREATMENT OF NEURODEGENERATIVE DISEASES USING NMDA RECEPTOR GLYCINE SITE ANTAGONISTS” (THE TRUSTEES OF COLUMBIA UNIVERSITY IN THE CITY OF NEW YORK, priority 2006, published 2009).

Columns and labels:
[1] = test system: wild-type LRRK2 overexpressing cells; test: Process length in wild-type LRRK2 overexpressing primary cortical neurons; format: cell-based, rat; details: 10 μM
Excerpt: FIGS. 8A-8B. […] N=25 for each group. […] N=10 for each group.
Cell Culture and Transfection.

[2] = test system: PD-associated LRRK2 mutant; test: Formation of LC3-GFP labeled aggregates in neurites / PD-associated LRRK2 pathology; format: cell-based
Excerpt: A method is disclosed for treating a neurodegenerative disease, for example, Parkinson's Disease associated with a mutant of leucine-rich repeat kinase-2 (LRRK2), with NMDA antagonists. The methods include assessing accumulation of LC3-GFP labeled aggregates. The methods may be carried out on primary neurons in vitro in a cell culture, or in vivo in an animal. In one embodiment, the cell is a post-mitotic neuron. In another embodiment, the post-mitotic neuron is a cortical neuron, a dopamine neuron, or a sympathetic neuron.
Mutations in LRRK2 underlie an autosomal dominant, inherited form of Parkinson's disease (PD) that mimics all of the clinical features of the common sporadic form of PD. The LRRK2 protein includes putative GTPase, protein kinase, WD40 repeat, and leucine rich repeat (LRR) domains of unknown function.

## NC1(C(=O)O)CCC1 [1-aminocyclobutane carboxylic acid]
[1]
  process length in wild-type LRRK2 overexpressing cells: do not alter process length

## O=c1c(-c2cccc(Oc3ccccc3)c2)c(O)[nH]c2cc(Cl)ccc12 [L-701,324, 7-chloro-2-hydroxy-3-[3-(phenoxy)phenyl]-1H-quinolin-4-one]
[2]
  PD-associated LRRK2 pathology: ameliorated
  formation of LC3-GFP labeled aggregates in neurites: ameliorated

## O=C1CC(c2ccccc2)Oc2ccccc21 (stereo not shown) [flavanone]
[1]
  process length in wild-type LRRK2 overexpressing cells: do not alter process length

## N[C@@H](CCC(=O)N[C@@H](CS)C(=O)NCC(=O)O)C(=O)O [glutathione]
[1]
  process length in wild-type LRRK2 overexpressing cells: do not alter process length

## Oc1ccc(O)cc1 [hydroquinone]
[1]
  process length in wild-type LRRK2 overexpressing cells: do not alter process length

## Nc1ccccc1C(=O)CC(N)C(=O)O (stereo not shown) [kynurenine]
[1]
  process length in wild-type LRRK2 overexpressing cells: do not alter process length
